Source: US20200038398A1, “COMBINATION THERAPY WITH GLUTAMINASE INHIBITORS” (Calithera Biosciences, Inc., priority 2017, published 2020)
Where two headings read alike, the source gives them in different places.

What was measured:
[1] = test system: HCC1569 (breast) cancer cell lines; assay: Combination cell viability (CellTiter-Glo), CB-839 with palbociclib; format: cell-based; conditions: FIG. 1a; combination with CDK 4/6 inhibitor palbociclib, various concentrations of CB-839, 72 hours
Experimental: (§1) Cells were treated with a dose titration of either CB-839, an anti-cancer agent, or a mixture thereof for 72 hours (for palbociclib or talazoparib) or 6 days (for niraparib) in growth media. At the end of the incubation, cell viability was measured using CellTiter-Glo as per manufacturer's protocol (Promega, Madison, Wis.). Cell proliferation for all compound treatments is represented with bar graphs, where luminescent output, Relative Light Units (RLU), correlates with viable cell number. Combination indices were calculated using CalcuSyn software (biosoft.com) and reported for individual mixtures of CB-839 and each agent.

[2] = test system: estrogen receptor positive (ER+) breast cancer; assay: as above; format: cell-based; conditions: FIG. 2a; combination with CDK 4/6 inhibitor palbociclib, various concentrations of CB-839, 72 hours
Experimental: as §1

[3] = test system: H1975 lung cancer cell lines; assay: Combination cell viability (CellTiter-Glo), CB-839 with osimertinib; format: cell-based; conditions: FIG. 4b, various concentrations of CB-839, 72 hours
Experimental: as §1, with “agent, osimertinib alone” for “agent,”, “of CB-839 and osimertinib” for “thereof”, “hours” for “hours (for palbociclib or talazoparib) or 6 days (for niraparib)”, “relative” for “viable”, “osimertinib.” for “each agent.”

[4] = test system: HCC827 lung cancer cell lines; assay: as above; format: cell-based; conditions: FIG. 4a, various concentrations of CB-839, 72 hours
Experimental: as §1, with “agent, osimertinib alone” for “agent,”, “of CB-839 and osimertinib” for “thereof”, “hours” for “hours (for palbociclib or talazoparib) or 6 days (for niraparib)”, “relative” for “viable”, “osimertinib.” for “each agent.”

[5] = test system: HCC1395 breast cancer cell lines; assay: Combination cell viability (CellTiter-Glo), CB-839 with talazoparib; format: cell-based; conditions: FIG. 3b; combination with PARP inhibitor talazoparib, various concentrations of CB-839, 72 hours
Experimental: as §1

[6] = test system: MCF-7 breast adenocarcinoma cells; assay: MCF-7 xenograft, CB-839 and palbociclib; format: in vivo; conditions: combination CB-839 200 mg/kg PO BID and palbociclib orally once daily; scid/bg mice; FIG. 2b
Experimental: Female scid/bg mice were implanted subcutaneously with 17B-estradiol sustained release pellets on Day −1. The following day mice were implanted subcutaneously with 5×10^6 MCF-7 breast adenocarcinoma cells mixed 1:1 with matrigel. On Day 7 post-implant, mice were randomized into groups of n=10/group to receive the following: 1) Vehicle (25% hydroxypropyl-B-cyclodextrin) orally BID; 2) CB-839 at 200 mg/kg orally BID; 3) Palbociclib at 50 mg/kg orally once daily; or 4) CB-839 at 200 mg/kg PO BID and Palbociclib orally once daily. Tumors were measured with calipers three times per week and tumor volume calculated using the formula tumor volume (mm^3)=(a×b^2/2) where ‘b’ is the smallest diameter and ‘a’ is the largest perpendicular diameter. ****P<0.0001 (ANOVA) versus both monotherapies.

[7] = test system: UWB1.289 ovarian cancer cell lines; assay: Combination cell viability (CellTiter-Glo), CB-839 with niraparib; format: cell-based; conditions: FIG. 3a; combination with PARP inhibitor niraparib, various concentrations of CB-839, 6 days
Experimental: as §1

P493-6 (myc “on”) cells = assay: Cell Proliferation Assay; format: cell-based; conditions: 72 hrs incubation
Experimental: P493-6 (myc “on”) cells were maintained in growth media (RPMI-1640, 10% FBS, 2 mM glutamine, 100 units/ml Penicillin and 100 μg/ml streptomycin) at 37° C. with 5% CO2. For compound assay, P493-6 cells were plated in 96-well V-bottom plates on the day of compound addition in 50 μl of growth media at a cell density of 200,000 cells/ml (10,000 cells/well). Compounds were serially diluted in 100% DMSO at 200-times the final concentration. Compounds were diluted 100-fold into growth media and then 50 μl of this mixture was added to cell plates making the final concentration of DMSO 0.5%. Cells were incubated with compound for 72 hrs at 37° C. with 5% CO2 and analyzed for antiproliferative effects either by Cell Titer Glo (Promega) or FACS analysis using the Viacount (Millipore) kit on the Guava instrument.

O=C(Cc1cccc(OC(F)(F)F)c1)Nc1ccc(CCCCc2nnc(NC(=O)Cc3ccccn3)s2)nn1 [CB-839]
synergy between CB-839 and palbociclib [1]: synergy | synergy between CB-839 and palbociclib [2]: synergy | synergy between CB-839 and osimertinib [3]: synergy | synergy between CB-839 and osimertinib [4]: synergy | synergy between CB-839 and talazoparib [5]: synergy | tumor volume, P (ANOVA) versus both monotherapies [6]: < 0.0001 | synergy between CB-839 and niraparib [7]: synergy

[2H]C([2H])(CCc1nnc(NC(=O)Cc2ccccn2)s1)C([2H])([2H])c1ccc(NC(=O)Cc2cccc(OC(F)(F)F)c2)nn1 [Compound 727]
IC50 (P493-6 (myc “on”) cells; read-out: Cell prolif P493 72h IC50): 0.012 µM

[2H]C([2H])(CCc1nnc(N)s1)C([2H])([2H])c1ccc(NC(=O)Cc2cccc(OC(F)(F)F)c2)nn1 [Compound 726]
IC50 (P493-6 (myc “on”) cells; P493-6, read-out: Cell prolif P493 72h IC50): 0.61 µM
